# Measured values taken from PMC4305367 (Cancer Chemotherapy and Pharmacology, 2014).
# Entries after “also recorded” stand apart in the source; their conditions may differ.
# How the values were obtained:
# [1] = tested on: dehydroepiandrosterone sulfate (DHEA-S); test: Pharmacodynamics: serum DHEA-S; type: in vivo, human; conditions: for Serum DHEA-S: mean (SD), LLOQ 2.0
# Protocol: (§1) Endocrine parameters such as serum testosterone and dehydroepiandrosterone sulfate (DHEA-S) were measured for PD analysis. The blood sample were collected on Days 1, 8, 15, and 22 of Cycle 1 and then on Day 1 of each subsequent 28-day cycle. Assay procedure for testosterone was improved during the study, and the lower limit of quantification (LLOQ) for testosterone changed from 0.05 to 0.03 ng/mL.
# [2] = tested on: prostate-specific antigen (PSA); test: Serum PSA levels and PSA response (PCWG2 criteria); type: in vivo, human; conditions: during the study; 15 patients
# Protocol: (§2) The efficacy endpoints were serum PSA levels, PSA response rates based on the Prostate Cancer Clinical Trials Working Group (PCWG) 2 criteria, and objective disease response rates based on the General Rule for Clinical and Pathological Studies on Prostate Cancer and modified RECIST version 1.0. PSA levels were measured on Days 1 and 15 in Cycle 1, on Day 1 of Cycle 2 and each subsequent cycle. Tumor assessments were performed on Day 29, 85, and every 12-week cycle for subsequent cycles.
# [3] = tested on: Japanese patients with castration-resistant prostate cancer; test: Phase 1 safety assessment: adverse events (NCI-CTCAE v3.0), DLT, laboratory profiles, ECG; type: in vivo, human
# Description: The propriety of transitions to subsequent dose cohort was judged on the basis of the number of patients with dose-limiting toxicities (DLTs) during Cycle 1 (28 days). […] Patients could continue study treatment until criteria for treatment discontinuation were met. The use of aldosterone antagonists (e.g., eplerenone) was allowed for patients with clinical symptoms of mineralocorticoid excess such as hypertension, hypokalemia, and edema.
# Safety assessments included the evaluation of adverse events (AEs), laboratory profiles, physical examination, and vital signs throughout the study. AEs were graded using National Cancer Institute Common Terminology Criteria for Adverse Events (NCI-CTCAE) v3.0. Analysis of serum amylase and lipase was added to the clinical laboratory tests before enrollment of patients into the 400-mg BID plus prednisolone cohort because pancreatitis was reported during the study. A safety follow-up was performed for 28 days after the final dose of the study treatment. During Cycle 1 (28 days), DLT was also evaluated. DLTs were defined as any drug-related AE of ≥ Grade 3 and pre-specified cardiac-related AEs of lower grade. Hypertension, hypokalemia, and edema attributed to increased ACTH secretion maintained at Grade 2 or lower through the use of eplerenone were not considered DLTs.
# [4] = tested on: castration-resistant prostate cancer; test: Objective disease response (General Rule for Prostate Cancer; modified RECIST 1.0); type: in vivo, human
# Protocol: as §2
# [5] = male, human, in vivo, 24 h
# serum androgen levels = conditions: monkeys; cited from earlier work
# serum testosterone = test: Pharmacodynamics: serum testosterone; type: in vivo, human; conditions: for Serum testosterone: mean (SD), LLOQ 0.05 or 0.03
# Protocol: as §1
# clinical = conditions: human, in vivo; for AUC(0-t): AUC0–8h; for Cmax: C max
# [6] = General Rule for Clinical and Pathological Studies on Prostate Cancer, 15 patients
smiles,measurement,setting,value
CNC(=O)c1ccc2cc([C@@]3(O)CCn4cncc43)ccc2c1 [Orteronel],Serum DHEA-S,"[1]; Cycle 1 Day 8, 200 mg BID (N = 3), screening 114.7 (8.96)",25.0 (7.21) μg/dL
same,Serum DHEA-S,"[1]; Cycle 1 Day 8, 300 mg BID (N = 3), screening 146.7 (79.83)",23.3 (14.57) μg/dL
same,Serum DHEA-S,"[1]; Cycle 1 Day 8, 300 mg BID + prednisolone (N = 3), screening 136.0 (52.68)",6.3 (4.16) μg/dL
same,Serum DHEA-S,"[1]; Cycle 1 Day 8, 400 mg BID (N = 3), screening 60.3 (8.50)",9.3 (0.58) μg/dL
same,Serum DHEA-S,"[1]; Cycle 1 Day 8, 400 mg BID + prednisolone (N = 3), screening 40.3 (7.57)",2.3 (0.58) μg/dL
same,Serum DHEA-S,"[1]; Cycle 2 Day 1, 200 mg BID (N = 3), screening 114.7 (8.96)",30.0 (9.64) μg/dL
same,Serum DHEA-S,"[1]; Cycle 2 Day 1, 300 mg BID (N = 3), screening 146.7 (79.83)",24.3 (11.93) μg/dL
same,Serum DHEA-S,"[1]; Cycle 2 Day 1, 300 mg BID + prednisolone (N = 3), screening 136.0 (52.68)",2.3 (0.58) μg/dL
same,Serum DHEA-S,"[1]; Cycle 2 Day 1, 400 mg BID (N = 3), screening 60.3 (8.50)",19.3 (16.29) μg/dL
same,Serum DHEA-S,"[1]; Cycle 2 Day 1, 400 mg BID + prednisolone (N = 3), screening 40.3 (7.57)",2.0 (0.00) μg/dL
same,Suppression of serum DHEA-S,[1]; Day 8,suppressed
same,Overall median maximum PSA reduction,[2],88.48%
same,Deaths,"[3]; during the study, 15 patients",No deaths were reported
same,Number of SAEs considered related to the study treatment,[3]; in vivo,nine
same,Patients with acute pancreatitis (Grades 2 and 3) or pancreatitis (Grade 1),[3]; in vivo,three
same,Patients with pancreatic-related AEs,[3]; in vivo,ten
same,Serious AEs (SAEs) in Cycle 1,[3]; in vivo,Neither DLTs nor serious AEs (SAEs) were reported
same,TEAEs associated with adrenal insufficiency,[3]; in vivo,No TEAE associated with adrenal insufficiency was reported
same,Treatment-related SAEs in the 200- and 300-mg BID cohorts,[3]; in vivo,No treatment-related SAE was observed
same,12-lead ECG and echocardiography findings,"[3]; male, human, in vivo",No clinically significant abnormal 12-lead ECG and echocardiography findings were observed
same,Abnormalities in hematologic test or urinalysis,"[3]; male, human, in vivo",No Grade 3 or higher abnormalities were observed
same,Incidence of constipation (AE),"[3]; male, human, in vivo",33%
same,Incidence of hyperamylasemia (AE),"[3]; male, human, in vivo",40%
same,Incidence of hyperlipasemia (AE),"[3]; male, human, in vivo",47%
same,Mineralocorticoid-related TEAE: hypertension,"[3]; male, human, in vivo",4 n
same,Mineralocorticoid-related TEAE: hypokalemia,"[3]; male, human, in vivo",3 n
same,Patients who experienced SAEs,"[3]; male, human, in vivo",60%
same,Patients with at least 1 TEAE,"[3]; male, human, in vivo",100%
same,Patients with at least 1 treatment-related AE,"[3]; male, human, in vivo",93%
same,TEAE subject incidence: Abdominal pain upper,"[3]; male, human, in vivo",2 (13) n (%)
same,TEAE subject incidence: Blood creatine phosphokinase increased,"[3]; male, human, in vivo",2 (13) n (%)
same,TEAE subject incidence: Constipation,"[3]; male, human, in vivo",5 (33) n (%)
same,TEAE subject incidence: Contusion,"[3]; male, human, in vivo",2 (13) n (%)
same,TEAE subject incidence: Dysgeusia,"[3]; male, human, in vivo",4 (27) n (%)
same,TEAE subject incidence: Fall,"[3]; male, human, in vivo",2 (13) n (%)
same,TEAE subject incidence: Hepatic function abnormal,"[3]; male, human, in vivo",4 (27) n (%)
same,TEAE subject incidence: Insomnia,"[3]; male, human, in vivo",2 (13) n (%)
same,TEAE subject incidence: Malaise,"[3]; male, human, in vivo",4 (27) n (%)
same,TEAE subject incidence: Nasopharyngitis,"[3]; male, human, in vivo",3 (20) n (%)
same,TEAE subject incidence: Nausea,"[3]; male, human, in vivo",3 (20) n (%)
same,TEAE subject incidence: Rash,"[3]; male, human, in vivo",3 (20) n (%)
same,TEAE subject incidence: Vomiting,"[3]; male, human, in vivo",2 (13) n (%)
same,Total number of SAEs,"[3]; male, human, in vivo",14 SAEs
same,Objective response rate (CR + PR),"[4]; General Rule for Clinical and Pathological Studies on Prostate Cancer, 5/15 patients",33%
same,Best response of complete response (CR),[4]; [6],no patient had a best response of complete response (CR)
same,Patients with best response of partial response (PR),[4]; [6],five
same,Best response by modified RECIST version 1.0,[4]; only six patients had measurable disease,No patient had a best response of CR or PR
same,Fractional urinary excretion rate,[5],36 to 47 % of the dose
same,Effect on serum androgen levels in vivo,serum androgen levels,reduced serum androgen levels
same,Serum testosterone,"serum testosterone; Cycle 1 Day 8, 200 mg BID (N = 3), screening 0.153 (0.0611)",0.050 (0.0000) ng/mL
same,Serum testosterone,"serum testosterone; Cycle 1 Day 8, 300 mg BID (N = 3), screening 0.123 (0.0702)",0.030 (0.0000) ng/mL
same,Serum testosterone,"serum testosterone; Cycle 1 Day 8, 300 mg BID + prednisolone (N = 3), screening 0.127 (0.0473)",0.030 (0.0000) ng/mL
same,Serum testosterone,"serum testosterone; Cycle 1 Day 8, 400 mg BID (N = 3), screening 0.057 (0.0115)",0.050 (0.0000) ng/mL
same,Serum testosterone,"serum testosterone; Cycle 1 Day 8, 400 mg BID + prednisolone (N = 3), screening 0.053 (0.0058)",0.043 (0.0115) ng/mL
same,Serum testosterone,"serum testosterone; Cycle 2 Day 1, 200 mg BID (N = 3), screening 0.153 (0.0611)",0.050 (0.0000) ng/mL
same,Serum testosterone,"serum testosterone; Cycle 2 Day 1, 300 mg BID (N = 3), screening 0.123 (0.0702)",0.030 (0.0000) ng/mL
same,Serum testosterone,"serum testosterone; Cycle 2 Day 1, 300 mg BID + prednisolone (N = 3), screening 0.127 (0.0473)",0.030 (0.0000) ng/mL
same,Serum testosterone,"serum testosterone; Cycle 2 Day 1, 400 mg BID (N = 3), screening 0.057 (0.0115)",0.050 (0.0000) ng/mL
same,Serum testosterone,"serum testosterone; Cycle 2 Day 1, 400 mg BID + prednisolone (N = 3), screening 0.053 (0.0058)",0.037 (0.0115) ng/mL
same,Suppression of serum testosterone,"serum testosterone; by 1 week after initiation (Day 8), across all cohorts",rapidly suppressed below the lower limit of quantification; also recorded: rapidly suppressed to the LLOQ or lower
same,AUC(0-t),clinical; 300 mg,14500 ng·h/mL
same,AUC(0-t),clinical; 400 mg,28600 ng·h/mL
same,"Time to C max (T max), range over cohorts",clinical; male,1 to 3 h
same,Tmax,"clinical; male, 200 mg",1 h
same,AUC(0-t),"clinical; male, 200 mg",7640 ng·h/mL
same,Cmax,"clinical; male, 200 mg",1580 ng/mL
same,Tmax,"clinical; male, 300 mg",3 h
same,Cmax,"clinical; male, 300 mg",3100 ng/mL
same,Tmax,"clinical; male, 400 mg",2.97 h
same,Cmax,"clinical; male, 400 mg",4700 ng/mL
